Measurements taken from patent US12144821B1, “Selective 3-prenyl 5-methyl ether, 7-o-rhamnoside flavone for the treatment of hepatic cancer” (KING FAISAL UNIVERSITY, priority 2024, dated 2024).

Assays:
Type in all cases: cell-based, human
[1] = tested on: HepG2 cancer cell line; experiment: Cell viability assay (MTT), antiproliferative screening; conditions: FIGS. 1A-1C
Description: Cells (HepG2) were provided from the American Type Culture Collection (ATCC) unless otherwise stated. Cells were grown in ATCC-formulated specific DMEM/F12 medium for each cell line with supplements of 5% fetal bovine serum, 10 U/ml penicillin, 10 μg/ml streptomycin, and 4% glutamine. All cell lines were placed in a humidified incubator a 37° C. in an atmosphere of 5% CO2 and 95% air. Cells were cultured into two groups. One as control cells and the other as cell lines treated for one day (3-prenyl 5-methyl ether, 7-O-rhamnoside-treated cells).
The cell viability will be tested using MTT. […] The culture supernatant was removed, the remaining MTT formazan crystals was dissolved in 400 μL of DMSO, and the absorbance was measured at 570 nm using an ELISA micro-plate reader (Bio-Tek Instruments, Winooski, VT, USA). The effect of 3-prenyl 5-methyl ether, 7-O-rhamnoside on cell viability was assessed as the percentage of viable cells compared with the vehicle-treated control cells, which were arbitrarily designated as 100%.
The cells were treated with increasing concentrations of 3-prenyl 5-methyl ether, 7-O-rhamnoside, (0-5, 10, 15, 20 and 25 μmol/mL for 24,48 and 72 h. The viability was assessed using the MTT assay. Values are mean±SD of three independent experiments. (p<0.01 compared untreated cells).

[2] = tested on: HepG2 cells; experiment: Migration assay (wound closure); conditions: non-cytotoxic concentrations, 24 hours, FIGS. 2A-2B
Description: (§1) During the metastatic cascade of carcinomas, tumor migration and invasion is the first and most important steps. It involves profound changes in cell adhesion, allowing tumour cells to dissociate and migrate from the primary site. […] Several essential steps of metastasis, including migration (FIGS. 2A-2B) invasion (FIG. 3A-3B) of human liver cancer cells, are inhibited by the 3-prenyl 5-methyl ether, 7-O-rhamnoside.
(§2) The migration and invasion assays were conducted by photographing the cells that migrated the membrane (200× magnification). As illustrated in FIGS. 2A-2B HepG2 cells were treated with 3-prenyl 5-methyl ether, 7-O-rhamnoside at indicated doses for 24 hours. The percentage inhibition of migrating cells was quantified and expressed based on untreated cells (control) represented 100%. The migration was determined by the areas of the wound closure calculated from three microscopic fields per sample.

[3] = tested on: HepG2 cells; experiment: Invasion assay; conditions: non-cytotoxic concentrations, FIGS. 3A-3B
Description: as §1, §2
As illustrated in FIGS. 3A-3B, invasiveness was determined by counting cells in three microscopic fields per sample. The inhibitory percentage of invading cells was quantified and expressed with untreated cells (control) representing 100%. Values are mean±SD of three independent experiments. (p<0.01 compared untreated cells).

COc1cc(OC2OC(C)C(O)C(O)C2O)cc2oc(-c3ccc(O)cc3)c(CC=C(C)C)c(=O)c12 (stereo not shown) [3-prenyl 5-methyl ether, 7-O-rhamnoside, apigenin 3-prenyl 5-methyl ether, 7-O-rhamnoside]
cytotoxicity for the HepG2 cancer cell line (cell viability, MTT) ([1]; 0, 5, 10, 15, 20 and 25 μmol, 24, 48 and 72 hrs): potentially cytotoxic | dose-dependent potentiation / enhancement of anti-proliferative effects ([1]; seen at both 15 and 20 μmol): Potentiation | migration of human liver cancer cells [2]: inhibited | invasion of human liver cancer cells [3]: inhibited
